Entries after “also recorded” stand apart in the source; their conditions may differ.
Assays:
[1] = tested on: interleukin-6; assay: Porcine SMA+FC model: interleukin-6 concentration in BALF; set-up: species or system pigs; details: pig, in vivo
Text: (§2) A sepsis-induced ARDS porcine model was developed. […] In addition, the protocol included a 3-day termination period, due to the severity of the ARDS associated with this model and the desire to obtain clinically relevant end-point data on all animals.

[2] = tested on: sepsis-induced ARDS (cecal ligation and puncture); assay: Rat cecal ligation and puncture (CLP) model of sepsis-induced ARDS: survival; type: in vivo, Sprague-Dawley rats; details: for Mortality at 168 hours (7 days): CLP+CMC 70%
Experimental: Surgical Procedure: Male Sprague-Dawley rats weighing between 250-300 g were acclimatized to the laboratory environment for one week prior to surgery. Free access to food and water was available for this time period. Rats were anesthetized with intraperitoneal (IP) Ketamine (90 mg/kg)/Xylazine (10 mg/kg ). Sepsis was produced using a modification of the cecal ligation and puncture (CLP) technique described by Chaudry et al. After the abdominal fur was shaved, a 2 cm midline incision was made through the skin and peritoneum. The cecum was identified and withdrawn through the incision. The avascular portion of the mesentery was sharply incised and the cecum was ligated just below the ileocecal valve with a 3-0 silk suture, so that intestinal continuity was maintained. Using an 18 gauge needle, the cecum was perforated in two locations on the antimesenteric surface and was gently compressed until feces were extruded to ensure patency of the holes. The bowel was then returned to the abdomen and the incision was closed in 2 layers using 3-0 Prolene™ for the muscle and 2-0 silk for the skin. Each rat received 10 cc physiological saline subcutaneously immediately after the procedure and at 12 and 24 hours post-surgery. The rats were allowed to recover with water and food provided ad libitum throughout the remainder of the study.
(§1) Experimental Protocol: Rats were randomly divided into 5 groups: GROUP 1) Sham CLP+2% solution of carboxymethylcellulose (CMC; vehicle for COL-3) in saline-midline laparotomy with cecum exposed and mesentery sharply incised plus oral gavage at the time of surgery with CMC (n=6); GROUP 2) Sham CLP+COL-3 (Collagenex Pharmaceutical, Newtown, Pa.)-midline laparotomy with cecum exposed and mesentery sharply incised plus oral gavage at the time of surgery with COL-3 (30 mg/kg, n=6); GROUP 3) CLP+CMC-midline laparotomy with CLP plus oral gavage at time of surgery with CMC (n=10); GROUP 4) CLP+COL-3 single dose [SD]-midline laparotomy with CLP plus oral gavage at the time of surgery with COL-3 (30 mg/kg, n=9); GROUP 5) CLP+COL-3 multiple dose [MD]-midline laparotomy with CLP plus oral gavage at the time of surgery and at 24 hours post CLP with COL-3 (30 mg/kg each administration for a total dose of 60 mg/kg, n=15). Rats were followed for 168 hours (7 days) with survival defined as hours post-CLP and survival time of each rat recorded. Rats were sacrificed at 168 hours or immediately following death. At necropsy, the left lung was excised and its bronchus cannulated. The lung was inflated to a pressure of 4 cmH2O with 10% formalin. The cannula was clamped and the lung stored in formalin at room temperature for 24 hours. The tissue was blocked in paraffin and serial sections made for staining with hematoxylin and eosin. Additionally, the remaining paraffin section of fixed lung was used for immunohistochemical determination of MMP-2 and MMP-9.
Statistical analysis: Survival rates were evaluated using the Kaplan and Meier method and the significance was determined by the generalized Wilcoxon method. Differences between groups were analyzed by one-way analysis of variance. When the F ratio indicated significance, a Newman-Keul test was used to identify individual differences. A p value less than 0.05 was considered significant. Correlations between COL-3 concentration and survival, COL-3 concentration and MMP-2 and MMP-9 levels and levels of MMP-2 and MMP-9 and survival were determined by simple linear regression analysis.

[3] = tested on: lung tissue; assay: Porcine SMA+FC model: morphometric analysis of lung tissue and lung water; type: in vivo, pigs
Text: as §2

[4] = tested on: MMP-9; assay: Rat CLP model: lung tissue MMP-9 level by immunohistochemistry; type: in vivo, Sprague-Dawley rats
Experimental: as §1
Lung tissue MMP-2 and MMP-9 levels: The levels of alveolar tissue MMP-2 and MMP-9 was assessed by immunohistochemical analysis as described elsewhere. Briefly, four micrometer formalin fixed paraffin sections were treated with xylene to remove paraffin and hydrated. The paraffin sections were treated with 0.4% pepsin for 45 minutes at +37° C. For immunostaining VECTASTAIN™ Rabbit ABC Elite Kit (Vector Laboratories, Burlingame, Calif.) was used according to manufactures instructions. […]

[5] = tested on: neutrophil elastase; assay: Porcine SMA+FC model: BALF elastase activity; set-up: species or system pigs; details: pig, in vivo
Text: as §2

[6] = Porcine SMA+FC model: blood COL-3 concentration
[7] = tested on: IL-10; assay: Porcine SMA+FC model: IL-10 concentration in BALF; set-up: species or system pigs; details: pig, in vivo
Text: In addition, the protocol included a 3-day termination period, due to the severity of the ARDS associated with this model and the desire to obtain clinically relevant end-point data on all animals.

[8] = tested on: sepsis-induced ARDS (SMA+FC); assay: Porcine fecal clot + SMA clamping sepsis-induced ARDS model: pulmonary function
[9] = morphometric analysis of lung tissue

With `NC(=O)C1=C(O)C[C@@H]2C[C@@H]3Cc4cccc(O)c4C(=O)C3=C(O)[C@]2(O)C1=O` [COL-3, 6-demethyl-6-deoxy-4-de(dimethylamino)tetracycline] the “Increase in interleukin-6 concentration in BALF” value [1] was “blocked the increase”, the “Seven day survival rate” value ([2]; CLP+COL-3 (MD), repeat dose at 24 hours post CLP, p<0.05 vs CLP+CMC and CLP+COL-3 (SD)) was “enhanced survival benefit” and the “Mortality at 168 hours (7 days)” value ([2]; CLP+COL-3 (MD): 30 mg/kg at surgery and at 24 hours post CLP) was 33%. The “Seven day survival rate” value ([2]; CLP+COL-3 (SD) vs CLP+CMC, p<0.05) was “significant improvement in survival”, the “Mortality at 168 hours (7 days)” value ([2]; CLP+COL-3 (SD): single prophylactic dose 30 mg/kg oral gavage at surgery) was 54% and the “Survival with delayed administration” value ([2]; COL-3 given as much as 12 hours following CLP) was “significantly improve survival”. For the same compound, the “Survival of sham animals” value ([2]; Sham CLP+COL-3, 30 mg/kg oral gavage, 168 hours) was “all survived”, the “Number of neutrophils sequestered in the lung” value ([3]; SMA+FC and SMA+FC+COL-3 groups vs Control Group, morphometric assessment) was “increased equally” and the “Decrease in hyline membranes” value [3, 9] was 94%. The “Reduction in alveolar edema” value [3, 9] was 62%, the “Decrease in lung water” value ([3]; pig, in vivo) was 41% and the “Lung tissue level of MMP-9” value ([4]; CLP+COL-3 (MD) vs CLP+CMC and CLP+COL-3 (SD)) was “further reduced the level of MMP-9 to Sham CLP levels; also recorded: significantly reduced”. For the same compound, the “Lung tissue level of MMP-9” value ([4]; CLP+COL-3 (SD) vs CLP+CMC) was “reduced MMP-9 levels compared to the CLP+CMC group, but was not statistically significant”, the “Alveolar tissue level of MMP-9” value ([4]; COL-3 administration, dose dependent fashion, vs CLP+CMC) was “significantly reduced” and the “Neutrophil elastase in BALF” value [5] was “inhibited”. For the same compound, the “Reduction in BALF elastase activity” value [5] was 87%, the “Blood COL-3 concentration” value ([6]; Day 1) was 3.1 ± 0.3 µg/mL and the “Blood COL-3 concentration” value ([6]; Day 2) was 4.9 ± 1.0 µg/mL. The “Blood COL-3 concentration” value ([6]; Day 3) was 3.1 ± 1.0 µg/mL, the “Increase in IL-10 concentration in BALF” value [7] was “blocked the increase” and the “Improvement in A-a gradient” value ([8]; SMA+FC+COL-3 vs SMA+FC group) was 64%. The “Improvement in lung plateau pressure” value ([8]; SMA+FC+COL-3 vs SMA+FC group) was 52%, the “Improvement in pulmonary compliance” value ([8]; SMA+FC+COL-3 vs SMA+FC group) was 344% and the “Increase in PaO2/FiO2 ratio” value ([8]; SMA+FC+COL-3 vs SMA+FC group) was 204%. For the same compound, the “Reduction in pulmonary shunt fraction” value ([8]; SMA+FC+COL-3 vs SMA+FC group) was 80% and the “Development of ARDS” value ([8]; lung compliance, PaO2/FiO2 ratio, shunt fraction, lung water, histology not significantly different from Control Group) was “completely prevented”.

From US20040092491A1, “Method of treating sepsis-induced ARDS” (The Research Foundation of State University of New York, priority 2002, published 2004)
